Test results reported in publication PMC12866838, “Targeting G3BP1 Condensate Topology Promotes Stress Granule Assembly via m^6A‐IGF2BP1 for Ischemic Stroke Rescue” (Advanced Science, 2025).

Target: T1, G3BP1^335–466 (RRM and IDR3 domains) (Homo sapiens, UniProt Q13283)
T1 construct: RRM + IDR3, residues 335-466, N-terminal GST removed by thrombin, E. coli BL21(DE3)
Test: SPR (Biacore T200, protein on CM5 chip)
Format: binding

T1 sequence (Q13283 335-466): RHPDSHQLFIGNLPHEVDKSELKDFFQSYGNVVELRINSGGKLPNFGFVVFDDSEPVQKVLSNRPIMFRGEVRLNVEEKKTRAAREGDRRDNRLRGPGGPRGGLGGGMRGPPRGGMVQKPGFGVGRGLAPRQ

Kd: > 100 µM
Compound: COc1ccc(-c2oc3c(CC=C(C)C)c(O[C@@H]4O[C@H](CO)[C@@H](O)[C@H](O)[C@H]4O)cc(O)c3c(=O)c2O[C@@H]2O[C@@H](C)[C@H](O)[C@@H](O)[C@H]2O)cc1 [icariin]
